Results on 37 compounds are retold here after US20150266878A1, “NOVEL BI-RING PHENYL-PYRIDINES/PYRAZINES FOR THE TREATMENT OF CANCER” (HOFFMANN-LA ROCHE INC., priority 2012, published 2015).

The test deals with T1, CDK8/Cyclin C (Homo sapiens, UniProt P49336).
T1 construct: purchased Invitrogen PV4402
T1 sequence (P49336 whole entry): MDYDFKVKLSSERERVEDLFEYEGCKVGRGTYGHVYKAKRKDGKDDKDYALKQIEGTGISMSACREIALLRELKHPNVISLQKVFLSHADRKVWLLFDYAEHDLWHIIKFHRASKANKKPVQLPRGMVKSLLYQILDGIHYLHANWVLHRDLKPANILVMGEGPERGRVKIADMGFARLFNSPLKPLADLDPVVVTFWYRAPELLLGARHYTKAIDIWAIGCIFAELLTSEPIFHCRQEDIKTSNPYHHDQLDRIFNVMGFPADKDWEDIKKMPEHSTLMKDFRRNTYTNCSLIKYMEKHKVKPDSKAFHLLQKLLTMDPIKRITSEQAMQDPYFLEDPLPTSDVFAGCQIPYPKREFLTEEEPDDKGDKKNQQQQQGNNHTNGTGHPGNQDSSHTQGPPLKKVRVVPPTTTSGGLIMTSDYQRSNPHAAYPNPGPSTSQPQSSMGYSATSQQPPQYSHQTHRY
T1 sequence (P24863 whole entry partner): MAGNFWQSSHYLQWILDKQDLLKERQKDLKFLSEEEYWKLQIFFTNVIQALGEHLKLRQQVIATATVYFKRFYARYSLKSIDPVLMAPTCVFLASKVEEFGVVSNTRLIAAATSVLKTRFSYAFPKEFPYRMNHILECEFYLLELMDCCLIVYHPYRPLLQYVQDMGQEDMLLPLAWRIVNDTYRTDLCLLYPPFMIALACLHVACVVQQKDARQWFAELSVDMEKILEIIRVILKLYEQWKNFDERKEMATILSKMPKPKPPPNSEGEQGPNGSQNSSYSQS
In words: CDK8/Cyclin C LANCE TR-FRET kinase assay. The class given is biochemical. The settings on record: CDK8/Cyclin C 10 nM, ATP 24 μM, Ulight-GS peptide 80 nM, 37° C. 30 mins. The text has this:
CDK8/Cyclin C LANCE TR-FRET Kinase Assay:
The biological activity of the compounds of the invention can be determined using the assay described below.
CDK8/Cyclin C protein was obtained from Invitrogen, cat #PV4402. ULight-Glycogen Synthase (Ulight-GS) peptide with sequence PASVPPSPSLSRHSSPHQ(pS)ED, and Europium-anti-phospho Glycogen Synthase (Ser641) [Eu-anti-P-GS (Ser641)] were obtained from Perkin Elmer, cat #TRF0131-M and cat #TRF0220. Adenosine-5′-triphosphate (ATP) was obtained from Invitrogen, cat #PV3227.
A mixture of (1) a compound of formula I, (2) substrate [Ulight-GS peptide (80 nM) and ATP (24 μM)], and (3) CDK8/Cyclin C (10 nM) in reaction buffer (50 mM Hepes, pH7.0, 10 mM MgCl2, 1 mM EGTA, 0.2 mg/mL BSA, 0.8 mM DTT) were incubated at 37° C. for 30 mins. Then, [Eu-anti-P-GS (Ser641)] (1.5 nM) was added. Following incubation at room temperature for 30 mins, the TR-FRET signals were detected using Envision reader (Ex 340 nm, Em 615 nm and 665 nm) from Perkin Elmer. The reactivity in percentage of inhibition or dose response was analyzed with GraphPad Prism 5 (GraphPad Software).
Regarding `CC1(C)C(=O)Nc2ccc(-c3cncc(N[C@@H](CO)c4ccccc4)c3)cc21` [Example 2, 5-[5-((R)-2-Hydroxy-1-phenyl-ethylamino)-pyridin-3-yl]-3,3-dimethyl-1,3-dihydro-indol-2-one], the IC50 amounted to 132 nM. In other words, the sub-micromolar range.
`O=C1Cc2cc(-c3cncc(N[C@@H](CO)c4ccccc4Cl)c3)ccc2N1` [Example 3, 5-{5-[(R)-1-(2-Chloro-phenyl)-2-hydroxy-ethylamino]-pyridin-3-yl}-1,3-dihydro-indol-2-one] registered an IC50 of 2.1 nM.
The compound `O=C1Cc2cc(-c3cncc(N[C@H](CO)c4ccccc4Cl)c3)ccc2N1` [Example 4, 5-{5-[(S)-1-(2-Chloro-phenyl)-2-hydroxy-ethylamino]-pyridin-3-yl}-1,3-dihydro-indol-2-one] had an IC50 of 157 nM. This IC50 lies about 75-fold higher than the previous one.
For `O=c1[nH]c2ccc(-c3cncc(N[C@@H](CO)c4ccccc4)c3)cc2[nH]1` [Example 5, 5-[5-((R)-2-Hydroxy-1-phenyl-ethylamino)-pyridin-3-yl]-1,3-dihydro-benzoimidazol-2-one], it took 1.1 nM to reach half-maximal inhibition (IC50). Compared with the last compound, the IC50 is about 140-fold lower.
In the case of `O=C1Nc2ccc(-c3cncc(N[C@@H](CO)c4ccccc4)c3)cc2C12CC2` [Example 6, (R)-5′-(5-((2-Hydroxy-1-phenylethyl)amino)pyridin-3-yl)-spiro[cyclopropane-1,3′-indolin]-2′-one], the IC50 is 2.9 nM.
Turning to `O=C1Cc2cc(-c3cncc(N[C@@H](CO)c4ccccc4)c3)cnc2N1` [Example 7, 5-[5-((R)-2-Hydroxy-1-phenyl-ethylamino)-pyridin-3-yl]-1,3-dihydro-pyrrolo[2,3-b]pyridin-2-one], it took 315 nM to reach half-maximal inhibition (IC50).
Regarding `O=C1Nc2ccc(-c3cncc(N[C@@H](CO)c4ccccc4)c3)cc2C1(F)F` [Example 8, 3,3-Difluoro-5-[5-((R)-2-hydroxy-1-phenyl-ethylamino)-pyridin-3-yl]-1,3-dihydro-indol-2-one], the half-inhibitory concentration (IC50) came to 37.6 nM.
For the compound `O=C1Cc2nc(-c3cncc(N[C@@H](CO)c4ccccc4)c3)ccc2N1` [Example 9, 5-[5-((R)-2-Hydroxy-1-phenyl-ethylamino)-pyridin-3-yl]-1,3-dihydro-pyrrolo[3,2-b]pyridin-2-one], the IC50 stood at 81.3 nM.
Turning to `O=C1Cc2cc(-c3cncc(N[C@@H](CO)c4ccccc4)c3)c(F)cc2N1` [Example 10, 6-Fluoro-5-[5-((R)-2-hydroxy-1-phenyl-ethylamino)-pyridin-3-yl]-1,3-dihydro-indol-2-one], the midpoint of inhibition, the IC50, lay at 0.5 nM.
The figure for `O=C1Cc2cc(-c3cncc(N[C@@H](CO)c4ccccc4)c3)cc(F)c2N1` [Example 11, 7-Fluoro-5-[5-((R)-2-hydroxy-1-phenyl-ethylamino)-pyridin-3-yl]-1,3-dihydro-indol-2-one] is 27.8 nM; for `O=c1[nH]c2ccc(-c3cncc(N[C@@H](CO)c4ccccc4)c3)cc2o1` [Example 12, 6-[5-((R)-2-Hydroxy-1-phenyl-ethylamino)-pyridin-3-yl]-3H-benzooxazol-2-one] it is 3.8 nM.
`O=c1[nH]c2ccc(-c3cncc(N[C@@H](CO)c4ccccc4)c3)cc2s1` [Example 13, 6-[5-((R)-2-Hydroxy-1-phenyl-ethylamino)-pyridin-3-yl]-3H-benzothiazol-2-one] gave an IC50 of 7.8 nM.
As to `OC[C@H](Nc1cncc(-c2ccc3c(c2)OCO3)c1)c1ccccc1` [Example 14, (R)-2-(5-Benzo[1,3]dioxol-5-yl-pyridin-3-ylamino)-2-phenyl-ethanol], the 50% inhibitory concentration (IC50) turned out to be 46.3 nM.
Turning to `OC[C@H](Nc1cncc(-c2ccc3c(c2)OCCO3)c1)c1ccccc1` [Example 15, (R)-2-[5-(2,3-Dihydro-benzo[1,4]dioxin-6-yl)-pyridin-3-ylamino]-2-phenyl-ethanol], the IC50 was found to be 350 nM. Against the preceding compound, the IC50 is about 7.6-fold higher.
`OC[C@H](Nc1cncc(-c2cccc3[nH]ccc23)c1)c1ccccc1` [Example 17, (R)-2-[5-(1H-Indol-4-yl)-pyridin-3-ylamino]-2-phenyl-ethanol]: the IC50 stood at 191 nM.
Turning to `Nc1n[nH]c2ccc(-c3cncc(N[C@@H](CO)c4ccccc4)c3)cc12` [Example 18, (R)-2-[5-(3-Amino-1H-indazol-5-yl)-pyridin-3-ylamino]-2-phenyl-ethanol], the 50% inhibitory concentration (IC50) was 0.8 nM.
Turning to `OC[C@H](Nc1cncc(-c2ccc3[nH]nc(F)c3c2)c1)c1ccccc1` [Example 19], inhibition was half-maximal at 1.8 nM (IC50).
For the compound `Cc1n[nH]c2ccc(-c3cncc(N[C@@H](CO)c4ccccc4)c3)cc12` [Example 20, (R)-2-[5-(3-Methyl-1H-indazol-5-yl)-pyridin-3-ylamino]-2-phenyl-ethanol], the IC50 stood at 0.5 nM.
With `CCc1n[nH]c2ccc(-c3cncc(N[C@@H](CO)c4ccccc4)c3)cc12` [Example 21, (R)-2-[5-(3-Ethyl-1H-indazol-5-yl)-pyridin-3-ylamino]-2-phenyl-ethanol], the half-inhibitory concentration (IC50) is 1.5 nM.
Compound `CSc1n[nH]c2ccc(-c3cncc(N[C@@H](CO)c4ccccc4)c3)cc12` [Example 22, (R)-2-[5-(3-Methylsulfanyl-1H-indazol-5-yl)-pyridin-3-ylamino]-2-phenyl-ethanol] had an IC50 of 0.5 nM.
`CS(=O)(=O)c1n[nH]c2ccc(-c3cncc(N[C@@H](CO)c4ccccc4)c3)cc12` [Example 23, (R)-2-[5-(3-Methanesulfonyl-1H-indazol-5-yl)-pyridin-3-ylamino]-2-phenyl-ethanol] registered a concentration for half-maximal inhibition (IC50) of 3.2 nM. This IC50 lies about 6.4-fold higher than the previous one.
On to `OC[C@H](Nc1cncc(-c2cnc3[nH]ncc3c2)c1)c1ccccc1` [Example 24, (R)-2-Phenyl-2-[5-(1H-pyrazolo[3,4-b]pyridin-5-yl)-pyridin-3-ylamino]-ethanol], for which the half-inhibitory concentration (IC50) is 1.1 nM.
`OC[C@H](Nc1cncc(-c2cc3cn[nH]c3cn2)c1)c1ccccc1` [Example 25, (R)-2-Phenyl-2-[5-(1H-pyrazolo[3,4-c]pyridin-5-yl)-pyridin-3-ylamino]-ethanol]: the midpoint of inhibition, the IC50, lay at 0.7 nM.
The figure for `OC[C@H](Nc1cncc(-c2ccc3[nH]nnc3c2)c1)c1ccccc1` [Example 26, (R)-2-[5-(1H-Benzotriazol-5-yl)-pyridin-3-ylamino]-2-phenyl-ethanol] is 9.4 nM; for `OC[C@H](Nc1cncc(-c2ccc3[nH]ncc3n2)c1)c1ccccc1` [Example 27, (R)-2-Phenyl-2-[5-(1H-pyrazolo[4,3-b]pyridin-5-yl)-pyridin-3-ylamino]-ethanol] it is 9.7 nM.
Take `OC[C@H](Nc1cncc(-c2ccc3[nH]nc(Cl)c3c2)c1)c1ccccc1` [Example 28, (R)-2-[5-(3-Chloro-1H-indazol-5-yl)-pyridin-3-ylamino]-2-phenyl-ethanol]: the IC50 came to 1 nM.
The figure for `NC(=O)C(Nc1cncc(-c2ccc3c(c2)CC(=O)N3)c1)c1ccccc1` (stereo not shown) [Example 29, 2-[5-(2-Oxo-2,3-dihydro-1H-indol-5-yl)-pyridin-3-ylamino]-2-phenyl-acetamide] is 67.2 nM.
The figure for `CC(=O)NC[C@H](Nc1cncc(-c2ccc3c(c2)CC(=O)N3)c1)c1ccccc1` [Example 30, N-{(R)-2-[5-(2-Oxo-2,3-dihydro-1H-indol-5-yl)-pyridin-3-ylamino]-2-phenyl-ethyl}-acetamide] is 22.7 nM.
The figure for `NC(=O)C(Nc1cncc(-c2ccc3c(c2)CNC3=O)c1)c1ccccc1` (stereo not drawn) [Example 31, 2-[5-(l-Oxo-2,3-dihydro-1H-isoindol-5-yl)-pyridin-3-ylamino]-2-phenyl-acetamide] is 294 nM.
In turn, `CC1(C)C(=O)Nc2ccc(-c3cncc(NC(C(N)=O)c4ccccc4)c3)cc21` (stereo not shown) [Example 32, 2-[5-(3,3-Dimethyl-2-oxo-2,3-dihydro-1H-indol-5-yl)-pyridin-3-ylamino]-2-phenyl-acetamide] displayed an IC50 of 813 nM.
As for `NC(=O)C(Nc1cncc(-c2ccc3c(c2)CCC(=O)N3)c1)c1ccccc1` (stereo not shown) [Example 33, 2-[5-(2-Oxo-1,2,3,4-tetrahydro-quinolin-6-yl)-pyridin-3-ylamino]-2-phenyl-acetamide], it took 1890 nM to reach half-maximal inhibition (IC50).
The compound `NC(=O)C(Nc1cncc(-c2cc3c(cc2F)NC(=O)CC3)c1)c1ccccc1` (stereo not shown) [Example 34, 2-[5-(7-Fluoro-2-oxo-1,2,3,4-tetrahydro-quinolin-6-yl)-pyridin-3-ylamino]-2-phenyl-acetamide] registered an IC50 of 1400 nM.
In turn, `NC(=O)C(Nc1cncc(-c2ccc3c(c2)OCO3)c1)c1ccccc1` (stereo not shown) [Example 35, 2-(5-Benzo[1,3]dioxol-5-yl-pyridin-3-ylamino)-2-phenyl-acetamide] registered a half-inhibitory concentration (IC50) of 559 nM.
The figure for `NC(=O)C(Nc1cncc(-c2ccc3c(c2)OCCO3)c1)c1ccccc1` (stereo not shown) [Example 36, 2-[5-(2,3-Dihydro-benzo[1,4]dioxin-6-yl)-pyridin-3-ylamino]-2-phenyl-acetamide] is 2510 nM.
The figure for `NC(=O)C(Nc1cncc(-c2ccc3[nH]ncc3c2)c1)c1ccccc1` (stereo not shown) [Example 37, 2-[5-(1H-Indazol-5-yl)-pyridin-3-ylamino]-2-phenyl-acetamide] is 3.4 nM; for `NC(=O)[C@H](Nc1cncc(-c2ccc3[nH]ncc3c2)c1)c1ccccc1` [Example 38, (R)-2-[5-(1H-Indazol-5-yl)-pyridin-3-ylamino]-2-phenyl-acetamide] it is 0.9 nM.
Compound `NC(=O)[C@@H](Nc1cncc(-c2ccc3[nH]ncc3c2)c1)c1ccccc1` [Example 39, (S)-2-[5-(1H-indazol-5-yl)-pyridin-3-ylamino]-2-phenyl-acetamide] registered an IC50 of 8.8 nM. Compared with the last compound, the IC50 is about 9.8-fold higher.
